In patent publication US4772603A, “Method for treating congestive heart failure, angina, occlusive peripheral vascular disease or cerebral vascular disease in mammals” (Beecham Group p.l.c., priority 1984, dated 1988):
Where two headings read alike, the source gives them in different places.

Key:
Rat isolated portal vein = test: Rat isolated portal vein: inhibition of spontaneous contractions and of contractions due to added calcium; parameters: species or system rat (male Sprague Dawley); conditions: for IC50: Rattus norvegicus, 0.25 h, 15 min contact time
Description: (1) Rat isolated portal vein. Male Sprague Dawley rats (250-350 g) were killed by cervical dislocation. Portal veins (2-3 cm in length) were set up under 0.8-1 g tension in a 10 ml organ bath containing Krebs-Henseleit solution, at 37° C., of the following composition (mM): NaCl 118, NaHCO3 25, glucose 5, KH2 PO4 1.18, KCl 4.69, MgSO4 0.59, CaCl2 ·H2 O 1.87. The tissue was aerated with a 95% oxygen and 5% carbon dioxide mixture. Isometric tension was recorded using a Devices strain gauge and recorder. Each preparation was allowed 1h to equilibrate before the addition of test compound. The ability of a compound to inhibit the contractions due to added calcium (3 mM CaCl2) was determined in tissues bathed in Krebs-Henseleit solution containing 0.05 mM CaCl2 (in order to reduce spontaneous contractions). Then percentage inhibition (mean±s.e.m.; 6-9 tissues) of the amplitude of the spontaneous contractions, and contractions due to added calcium, was determined after 15 min contact time with test compound.
IC50 is concentration of compound reducing contractions by 50%; parenthesis indicate 95% fiducial limits.

[1] = test system: Rabbit isolated mesenteric artery; test: Rabbit isolated mesenteric artery: inhibition of contractions due to 30 and 90 mM KCl; parameters: species or system rabbit (male New Zealand White)
Description: (2) Rabbit isolated mesenteric artery. Mesenteric arteries (3 mm rings) were removed from male New Zealand White rabbits and mounted, at a resting tension of 1.5-2.0 g, in a 10 ml organ bath containing a Ringer solution, at 37° C., of the following composition (mM): NaCl 120.8; KCl 5.9; CaCl2 2.5; MgCl2 1.2; HEPES 5.8; glucose 11.5. The bathing solution was bubbled with a 95% oxygen and 5% carbon dioxide mixture. Each preparation was allowed 1-11/2 h to equilibrate before the addition of either 30 or 90 mM KCl to contract the tissue. The ability of test compound to relax the sustained contraction due to KCl was determined by assessing the % reduction (mean±s.e.m.; 4-9 tissues) produced by varying concentrations of test compound.
IC50 is the concentration of compound 1 halving the contraction due to KCl; parenthesis indicate 95% fiducial limits.

hypoxic skeletal muscle = test: Effect of compounds on skeletal muscle oxygen tension in the rat (with reduction in mean arterial blood pressure); assay type: in vivo; conditions: for CHANGE IN PO2 (average change in muscle PO2 produced by treatment) / REDUCTION IN MABP (Mean Arterial Blood Pressure): mean±S.D., 6 rats/treatment; for oxygen tension (PO2) in hypoxic skeletal muscle: at approximately a hypotensive dose
Description: Values are mean±S.D.; 6 rats/treatment
MABP=Mean Arterial Blood Pressure
Change in PO2 =the average change in muscle PO2 produced by treatment

Compound | IC50 (Rat isolated portal vein; contractions due to added calcium (3 mM CaCl2), 0.05 mM CaCl2 Krebs-Henseleit, 95% fiducial limits (0.87-3.5), read-out: IC50 Ca^2+ (3 mM) (concentration reducing contractions by 50%)) | IC50 (Rat isolated portal vein; spontaneous contractions, 95% fiducial limits (0.67-7.8), read-out: IC50 Spontaneous (concentration reducing contractions by 50%)) | inhibitor of spontaneous contractions and of those due to added calcium (comparison in words) (Rat isolated portal vein; spontaneous versus added calcium contractions) | antagonism of contractions due to a partially / fully depolarising concentration of potassium ([1]; 30 mM (partially) and 90 mM (fully depolarising) KCl) | IC50 ([1]; Oryctolagus cuniculus, read-out: IC50 90 mM KCl (concentration halving the contraction due to KCl)) | effect against a high concentration of KCl ([1]; high KCl (90 mM)) | CHANGE IN PO2 (average change in muscle PO2 produced by treatment) (hypoxic skeletal muscle; 0.3 mg/kg intraduodenally) | REDUCTION IN MABP (Mean Arterial Blood Pressure) (hypoxic skeletal muscle; 0.3 mg/kg intraduodenally) | oxygen tension (PO2) in hypoxic skeletal muscle (hypoxic skeletal muscle) | CHANGE IN PO2 (average change in muscle PO2 produced by treatment) (hypoxic skeletal muscle; 1.0 mg/kg intraduodenally) | REDUCTION IN MABP (Mean Arterial Blood Pressure) (hypoxic skeletal muscle; 1.0 mg/kg intraduodenally)
CC1(C)Oc2ccc(C#N)cc2[C@@H](N2CCCC2=O)[C@@H]1O (relative stereo) [Compound 1, 6-cyano-3,4-dihydro-2,2-dimethyl-trans-4-(2-oxo-1-pyrrolidinyl)-2H-benzo[b]pyran-3-ol] | 150 nM | 120 nM | equipotent | antagonises the contractions due to a partially, but not a fully, depolarising concentration of potassium | > 10000 nM | effectiveness | +8.7 ± 2.3 TORR | 44 ± 4 MMHG | large increase |  | 
CCN(C(C)=O)[C@@H]1c2cc(C#N)ccc2OC(C)(C)[C@H]1O (relative stereo) [Compound 2, trans-4-N-acetylethylamino-6-cyano-3,4-dihydro-2,2-dimethyl-2H-benzo[b]pyran-3-ol] |  |  |  |  |  |  |  |  | large increase | +8.2 ± 3.7 TORR | 36 ± 4 MMHG
